No end group written: not given here.

Tested on in one series: not given
Assay: not given
Particulars: in vivo; cited from earlier work.
Take `OC[C@@H](O)[C@H](O)[C@@H](O)CO` [Xylitol]: the reduce cavities entry is on record as “up to 80%”.

Still in this series, the particulars now being: long-term; cited from earlier work.
Consider `OC[C@@H](O)[C@H](O)[C@@H](O)CO` [Xylitol], for which the “long-term reduction in caries” value is reported as 88-93%.

In the next series the test system is S. mutans.
Assay: not given
Particulars: Streptococcus mutans.
With “TAFRLANRSATQALGK [F2/6/10-A2/6/10_C16G2]”, the “% viability remaining” value is 78%. For TFFRLFNRSFTQALAK [G15-A15_C16G2], the “% viability remaining” value came out at 47%.

On to TFFRLFNRSFTQALDK [G15-D15_C16G2], for which the “% viability remaining” value turned out to be 47%. With TFFRLFNRSFTQALFK [G15-F15_C16G2], the “% viability remaining” value is on record as 29%.

Consider TFFRLFNRSLTQALGK [F10-L10_C16G2], for which the “% viability remaining” value was found to be 30%. For the compound TFFRLFNRSQTQALGK [F10 to Q10_C16G2], the “% viability remaining” value is on record as 73%. Still for that read-out and setting: the figure for TFFRLLNRSFTQALGK [F6-L6_C16G2] is 43%; for TFFRLQNRSFTQALGK [F6 to Q6_C16G2] it is 79%; for TLFRLFNRSFTQALGK [F2-L2_C16G2] it is 63%. On the same count and under the same terms, the figure for “TLFRLLNRSLTQALGK [F2F6F10-L2L6L10_C16G2]” is 26%.

In the case of TQFRLFNRSFTQALGK [F2 to Q2_C16G2], the “% viability remaining” value came out at 47%. Consider TQFRLQNRSQTQALGK [F7/11/15 sub Q_C16G2], for which the “% viability remaining” value is 93%.

With TWFRLFNRSFTQALGK [F2-W2_C16G2], the “% viability remaining” value was 45%.

Another series relates to MRSA. Kind of series: MIC against MRSA. The class given is cell-based.
Settings: not given
On to “FESKILNASKELDKEKKVNTALSFNSHQDFAKAYQNGKI [PF-606]”, for which the MIC result is on record as “MRSA, 50 μM”. On the same count and under the same terms, the entry for FIRKFLQKLHL [K-16] is “MRSA, 25 μM”; for “GSVIKKRRKRMAKKKHRKLLKKTRIQRRRAGK [PF-527]” it is “MRSA, 50 μM”. As for KFQGEFTNIGQSYIVSASHMSTSLNTGK [PF-583], the MIC result was “MRSA, 50 μM”.

Take MGIIAGIIKFIKGLIEKFTGK [PF-006]: the MIC result is on record as “MRSA, 50 μM”. As to MRFGSLALVAYDSAIKHSWPRPSSVRRLRM [PF-672], the MIC entry was “MRSA, 1.56 μM”. Same read-out and setting: then NYAVVSHT [PF-209], with “MRSA, 50 μM”; and RESKLIAMADMIRRRI [PF-545], with “MRSA, 50 μM”. Still for that read-out and setting: the entry for VLPFPAIPLSRRRACVAAPRPRSRQRAS [PF-168] is “MRSA, 50 μM”.

These data come from patent US11707431B2, “Dental strips for the delivery of specifically targeted antimicrobial peptides” (C3 Jian, LLC, priority 2017, dated 2023).
